Experiments:
Assay in all cases: relative viability (nuclei count vs DMSO), 5 days (fraction); higher = more cells survive
[1] = compound: O=C(Nc1cccc(C(F)(F)F)c1)Nc1cc(S(=O)(=O)NC2CC2)ccc1-c1ccsc1 [AGI-6780] + COc1cc2c(Oc3ccc(NC(=O)C4(C(=O)Nc5ccc(F)cc5)CC4)cc3F)ccnc2cc1OCCCN1CCOCC1 [Foretinib] (partner 0.25 µM)
In short: (§1)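 The day after seeding in 1536-well plates, lung cancer cell lines were treated by pin tool with a single drug, or with a fixed anchor-drug dose together with five library-drug doses (not always all listed) in √10 steps. After 5 days, a combined fix-and-stain solution (final 0.05% Triton X-100, 1% formaldehyde, 1 ug/ml Hoechst) was added. Nuclei counted on 4× images gave relative viability as treated counts over vehicle counts, reported as the median of duplicate plates.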

[2] = compound: O=C(Nc1cccc(C(F)(F)F)c1)Nc1cc(S(=O)(=O)NC2CC2)ccc1-c1ccsc1 [AGI-6780] + CS(=O)(=O)N1CCN(Cc2cc3nc(-c4cccc5[nH]ncc45)nc(N4CCOCC4)c3s2)CC1 [Pictilisib] (partner 1 µM)
In short: as §1

[3] = compound: O=C(Nc1cccc(C(F)(F)F)c1)Nc1cc(S(=O)(=O)NC2CC2)ccc1-c1ccsc1 [AGI-6780] + CC(=O)c1c(C)c2cnc(Nc3ccc(N4CCNCC4)cn3)nc2n(C2CCCC2)c1=O [Palbociclib] (partner 0.5 µM)
In short: as §1

[4] = compound: O=C(Nc1cccc(C(F)(F)F)c1)Nc1cc(S(=O)(=O)NC2CC2)ccc1-c1ccsc1 [AGI-6780] + CC(C)C[C@H](NC(=O)[C@H](Cc1ccccc1)NC(=O)c1cnccn1)B(O)O [Bortezomib] (partner 0.002 µM)
In short: as §1

NCI-H2405
relative viability ([1]; first compound 0.08 µM): 1.06 | relative viability ([1]; first compound 0.253 µM): 1.01 | relative viability ([1]; first compound 0.8 µM): 0.746 | relative viability ([1]; first compound 2.53 µM): 1.02 | relative viability ([1]; first compound 8 µM): 1 | relative viability ([2]; first compound 0.08 µM): 0.411 | relative viability ([2]; first compound 0.253 µM): 0.467 | relative viability ([2]; first compound 0.8 µM): 0.262 | relative viability ([2]; first compound 8 µM): 0.53 | relative viability ([3]; first compound 0.253 µM): 0.532 | relative viability ([3]; first compound 0.8 µM): 0.45 | relative viability ([3]; first compound 2.53 µM): 0.47 | relative viability ([3]; first compound 8 µM): 0.526 | relative viability ([4]; first compound 0.08 µM): 0.972 | relative viability ([4]; first compound 0.253 µM): 0.978 | relative viability ([4]; first compound 0.8 µM): 0.925 | relative viability ([4]; first compound 2.53 µM): 0.798 | relative viability ([4]; first compound 8 µM): 1.01

NCI-H3122
relative viability ([1]; first compound 0.08 µM): 0.971 | relative viability ([1]; first compound 0.253 µM): 0.959 | relative viability ([1]; first compound 0.8 µM): 1.08 | relative viability ([1]; first compound 2.53 µM): 1.03 | relative viability ([1]; first compound 8 µM): 0.983 | relative viability ([2]; first compound 0.08 µM): 0.584 | relative viability ([2]; first compound 0.253 µM): 0.563 | relative viability ([2]; first compound 0.8 µM): 0.625 | relative viability ([2]; first compound 2.53 µM): 0.548 | relative viability ([2]; first compound 8 µM): 0.62 | relative viability ([3]; first compound 0.08 µM): 0.217 | relative viability ([3]; first compound 0.253 µM): 0.148 | relative viability ([3]; first compound 0.8 µM): 0.172 | relative viability ([3]; first compound 2.53 µM): 0.178 | relative viability ([3]; first compound 8 µM): 0.217 | relative viability ([4]; first compound 0.08 µM): 1.11 | relative viability ([4]; first compound 0.253 µM): 1 | relative viability ([4]; first compound 0.8 µM): 1.05 | relative viability ([4]; first compound 2.53 µM): 1.05 | relative viability ([4]; first compound 8 µM): 0.999

PC-3 [JPC-3]
relative viability ([1]; first compound 0.08 µM): 1.08 | relative viability ([1]; first compound 0.253 µM): 0.986 | relative viability ([1]; first compound 0.8 µM): 0.969 | relative viability ([1]; first compound 2.53 µM): 1.05 | relative viability ([1]; first compound 8 µM): 1.01 | relative viability ([2]; first compound 0.08 µM): 0.767 | relative viability ([2]; first compound 0.253 µM): 0.78 | relative viability ([2]; first compound 0.8 µM): 0.819 | relative viability ([2]; first compound 2.53 µM): 0.687 | relative viability ([2]; first compound 8 µM): 0.691 | relative viability ([3]; first compound 0.253 µM): 0.574 | relative viability ([3]; first compound 0.8 µM): 0.563 | relative viability ([3]; first compound 2.53 µM): 0.566 | relative viability ([3]; first compound 8 µM): 0.571 | relative viability ([4]; first compound 0.08 µM): 0.816 | relative viability ([4]; first compound 0.253 µM): 0.796 | relative viability ([4]; first compound 0.8 µM): 0.753 | relative viability ([4]; first compound 2.53 µM): 0.856 | relative viability ([4]; first compound 8 µM): 0.782

PC-14
relative viability ([1]; first compound 0.08 µM): 0.902 | relative viability ([1]; first compound 0.253 µM): 1.1 | relative viability ([1]; first compound 0.8 µM): 1.02 | relative viability ([1]; first compound 2.53 µM): 0.941 | relative viability ([1]; first compound 8 µM): 0.979 | relative viability ([2]; first compound 0.08 µM): 0.927 | relative viability ([2]; first compound 0.253 µM): 0.681 | relative viability ([2]; first compound 0.8 µM): 0.893 | relative viability ([2]; first compound 2.53 µM): 0.55 | relative viability ([2]; first compound 8 µM): 0.857 | relative viability ([3]; first compound 0.08 µM): 0.533 | relative viability ([3]; first compound 0.253 µM): 0.538 | relative viability ([3]; first compound 0.8 µM): 0.568 | relative viability ([3]; first compound 2.53 µM): 0.553 | relative viability ([3]; first compound 8 µM): 0.546 | relative viability ([4]; first compound 0.08 µM): 0.899 | relative viability ([4]; first compound 0.253 µM): 0.71 | relative viability ([4]; first compound 0.8 µM): 0.917 | relative viability ([4]; first compound 2.53 µM): 0.793 | relative viability ([4]; first compound 8 µM): 0.934

RERF-LC-KJ
relative viability ([1]; first compound 0.08 µM): 0.871 | relative viability ([1]; first compound 0.253 µM): 0.904 | relative viability ([1]; first compound 0.8 µM): 0.88 | relative viability ([1]; first compound 2.53 µM): 0.597 | relative viability ([1]; first compound 8 µM): 0.909 | relative viability ([2]; first compound 0.08 µM): 0.559 | relative viability ([2]; first compound 0.253 µM): 0.537 | relative viability ([2]; first compound 0.8 µM): 0.604 | relative viability ([2]; first compound 2.53 µM): 0.418 | relative viability ([2]; first compound 8 µM): 0.467 | relative viability ([3]; first compound 0.08 µM): 1.06 | relative viability ([3]; first compound 0.253 µM): 1.09 | relative viability ([3]; first compound 0.8 µM): 1.07 | relative viability ([3]; first compound 2.53 µM): 0.93 | relative viability ([3]; first compound 8 µM): 1.01 | relative viability ([4]; first compound 0.08 µM): 1.06 | relative viability ([4]; first compound 0.253 µM): 1.16 | relative viability ([4]; first compound 0.8 µM): 1.15 | relative viability ([4]; first compound 2.53 µM): 0.798 | relative viability ([4]; first compound 8 µM): 1.09

SK-LU-1
relative viability ([1]; first compound 0.08 µM): 0.873 | relative viability ([1]; first compound 0.253 µM): 0.859 | relative viability ([1]; first compound 2.53 µM): 0.737 | relative viability ([1]; first compound 8 µM): 0.831 | relative viability ([2]; first compound 0.08 µM): 0.496 | relative viability ([2]; first compound 0.253 µM): 0.57 | relative viability ([2]; first compound 0.8 µM): 0.437 | relative viability ([2]; first compound 2.53 µM): 0.435 | relative viability ([2]; first compound 8 µM): 0.752 | relative viability ([3]; first compound 0.08 µM): 0.422 | relative viability ([3]; first compound 0.253 µM): 0.411 | relative viability ([3]; first compound 0.8 µM): 0.284 | relative viability ([3]; first compound 2.53 µM): 0.409 | relative viability ([3]; first compound 8 µM): 0.39 | relative viability ([4]; first compound 0.08 µM): 1.25 | relative viability ([4]; first compound 0.253 µM): 1.45 | relative viability ([4]; first compound 0.8 µM): 0.965 | relative viability ([4]; first compound 2.53 µM): 1.12 | relative viability ([4]; first compound 8 µM): 1.4

SW 1573
relative viability ([1]; first compound 0.08 µM): 0.881 | relative viability ([1]; first compound 0.253 µM): 1.01 | relative viability ([1]; first compound 0.8 µM): 0.93 | relative viability ([1]; first compound 2.53 µM): 0.836 | relative viability ([1]; first compound 8 µM): 0.903 | relative viability ([2]; first compound 0.08 µM): 0.506 | relative viability ([2]; first compound 0.253 µM): 0.518 | relative viability ([2]; first compound 0.8 µM): 0.514 | relative viability ([2]; first compound 2.53 µM): 0.374 | relative viability ([2]; first compound 8 µM): 0.543 | relative viability ([3]; first compound 0.08 µM): 0.399 | relative viability ([3]; first compound 0.253 µM): 0.332 | relative viability ([3]; first compound 0.8 µM): 0.479 | relative viability ([3]; first compound 8 µM): 0.37 | relative viability ([4]; first compound 0.08 µM): 1.01 | relative viability ([4]; first compound 0.253 µM): 1.1 | relative viability ([4]; first compound 0.8 µM): 0.915 | relative viability ([4]; first compound 2.53 µM): 0.69 | relative viability ([4]; first compound 8 µM): 0.879

UMC-11
relative viability ([1]; first compound 0.08 µM): 1.03 | relative viability ([1]; first compound 0.253 µM): 1.03 | relative viability ([1]; first compound 0.8 µM): 1.23 | relative viability ([1]; first compound 8 µM): 1.19 | relative viability ([2]; first compound 0.08 µM): 0.822 | relative viability ([2]; first compound 0.253 µM): 0.837 | relative viability ([2]; first compound 0.8 µM): 1.08 | relative viability ([2]; first compound 8 µM): 0.887 | relative viability ([3]; first compound 0.08 µM): 0.34 | relative viability ([3]; first compound 0.253 µM): 0.324 | relative viability ([3]; first compound 0.8 µM): 0.334 | relative viability ([3]; first compound 8 µM): 0.336 | relative viability ([4]; first compound 0.08 µM): 0.671 | relative viability ([4]; first compound 0.253 µM): 0.712 | relative viability ([4]; first compound 0.8 µM): 1.06 | relative viability ([4]; first compound 8 µM): 1.04

Source: the supplement of paper PMC10307832
